# Results taken from patent US20120214818A1, “METHODS OF TREATING DIASTOLIC DYSFUNCTION AND RELATED CONDITIONS” (THE BOARD OF TRUSTEES OF THE UNIVERSITY OF ILLINOIS, priority 2009, published 2012).
# How the values were obtained:
# [1] = tested on: isolated ventricular cardiomyocytes from DOCA-salt and sham mice; test: Cell shortening (sarcomere shortening and relengthening) of isolated cardiomyocytes; assay type: cell-based, mouse; settings: for relaxation τ (relaxation time constant): 10 μmol/L ranolazine 10 min
# Procedure: Myocyte isolation: Cardiac ventricular myocytes were isolated from the hearts of DOCA-salt or age matched controls mice 14-18 d post-operatively using a modified enzymatic digestion protocol from the Alliance for Cellular Signaling as previously described.^20 Cell shortening and calcium transient measurements: The mechanical properties of the cardiomyocytes were assessed using an IonOptix Myocam System (Ionoptix Inc., Milton, Mass.). Unloaded cardiomyocytes were placed on a glass slide and allowed to adhere for 10 min. Cardiomyocytes were then imaged with an inverted microscope and perfused with a Tyrode's buffer containing 1.2 mmol/L calcium at room temperature. Cardiomyocytes were paced at 0.5 Hz for 10 ms duration, and sarcomere shortening and relengthening were assessed using the following indices: peak fractional shortening (FS), time to 90% peak shortening, and τ, the relaxation time constant (a0+[…]^t/τ, t=time). Cardiomyocytes were treated with 10 μmol/L ranolazine for 10 min prior to evaluation. For calcium transient measurements, cardiomyocytes were loaded with 1 μmol/L Fura 2-AM for 10 min at room temperature, and fluorescence measurements were recorded with a dual-excitation fluorescence photomultiplier system (IonOptix). After loading, the cells were washed and resuspended in normal Tyrode solution. The cardiomyocytes were placed then in the cell chamber, stimulated at 0.5 Hz for 10 ms duration, and imaged through a Fluor×40 objective lens. Cells were exposed to light emitted by a 75-W Xenon lamp and passed though either a 340- or 380-nm wavelength filter. The emitted fluorescence was detected at 510 nm. To take into account any inference from background fluorescence, the background fluorescence for each cardiomyocyte was determined by moving the cardiomyocyte out of the view and recording the fluorescence from the bath solution alone. The mechanical properties of the cardiomyocytes were assessed using an IonOptix Myocam System (Ionoptix Inc., Milton, Mass.). Unloaded cardiomyocytes were placed on a glass slide and allowed to adhere for 10 min at 37° C. Cardiomyocytes were then imaged with an inverted microscope and perfused with a Tyrode's buffer containing 1.2 mmol/L calcium at room temperature. Cardiomyocytes were paced at 0.5, 1, or 2 Hz for 10 ms duration, and sarcomere shortening and relengthening were assessed using the following indices: peak fractional shortening (FS), time to 90% peak shortening, and τ, the relaxation time constant (a0+[…]^t/τ, t=time). Cardiomyocytes were treated with 10 μmol/L ranolazine for 10 min prior to evaluation. […] For calcium transient measurements, cardiomyocytes were loaded with 1 μmol/L fura 2-AM for 10 min at 37° C., and fluorescence measurements were recorded with a dual-excitation fluorescence photomultiplier system (IonOptix). After loading, the cells were washed and resuspended in normal Tyrode solution. The cardiomyocytes were placed then in the cell chamber, stimulated at 0.5, 1, or 2 Hz for 10 ms duration, and imaged through a Fluor×40 objective lens. Cells were exposed to light emitted by a 75-W Xenon lamp and passed though either a 340- or 380-nm wavelength filter. The emitted fluorescence was detected at 510 nm. To take into account any interference, the background fluorescence for each cardiomyocyte was determined by moving the cardiomyocyte out of the view and recording the fluorescence from the bath solution alone. Myocyte isolation: Cardiac ventricular myocytes were isolated from the hearts of DOCA-salt or age matched controls mice 14-18 d post-operatively using a modified enzymatic digestion protocol from the Alliance for Cellular Signaling as previously described (Silberman et al., Circulation 121: 519-528 (2010)).
# [2] = tested on: isolated ventricular myocytes from DOCA-salt and sham mice; test: Calcium transient measurements (Fura-2AM) in isolated cardiomyocytes; assay type: cell-based, mouse; settings: 10 μM ranolazine
# Procedure: Cell shortening and calcium transient measurements: The mechanical properties of the cardiomyocytes were assessed using an IonOptix Myocam System (Ionoptix Inc., Milton, Mass.). Unloaded cardiomyocytes were placed on a glass slide and allowed to adhere for 10 min. Cardiomyocytes were then imaged with an inverted microscope and perfused with a Tyrode's buffer containing 1.2 mmol/L calcium at room temperature. Cardiomyocytes were paced at 0.5 Hz for 10 ms duration, and sarcomere shortening and relengthening were assessed using the following indices: peak fractional shortening (FS), time to 90% peak shortening, and τ, the relaxation time constant (a0+[…]^t/τ, t=time). […] For calcium transient measurements, cardiomyocytes were loaded with 1 μmol/L Fura 2-AM for 10 min at room temperature, and fluorescence measurements were recorded with a dual-excitation fluorescence photomultiplier system (IonOptix). […] The emitted fluorescence was detected at 510 nm. To take into account any inference from background fluorescence, the background fluorescence for each cardiomyocyte was determined by moving the cardiomyocyte out of the view and recording the fluorescence from the bath solution alone. The mechanical properties of the cardiomyocytes were assessed using an IonOptix Myocam System (Ionoptix Inc., Milton, Mass.). […] The emitted fluorescence was detected at 510 nm. […]
# [3] = DOCA-salt cardiomyocytes paced at 1 Hz and 2 Hz (FIG. 14)
smiles,measurement,setting,value
COc1ccccc1OCC(O)CN1CCN(CC(=O)Nc2c(C)cccc2C)CC1 (stereo not shown) [ranolazine],relaxation time (τ) at 1 and 2 Hz pacing,[1]; [3],improved relaxations times at both frequencies
same,sarcomere length at 1 and 2 Hz pacing,[1]; [3],lengthened sarcomere length at both frequencies
same,relaxation τ (relaxation time constant),"[1]; DOCA-salt cardiomyocytes, 0.5 Hz, 37° C. (Example 7)",0.13 ± 0.01 s
same,relaxation τ (relaxation time constant),"[1]; DOCA-salt cardiomyocytes, paced 0.5 Hz, room temperature (Example 3)",0.08 ± 0.01 s
same,resting (baseline) sarcomere length,"[1]; DOCA-salt cardiomyocytes, 10 μmol/L ranolazine (Example 6)",1.81±0.01 μm
same,resting (baseline) sarcomere length,"[1]; DOCA-salt cardiomyocytes, 10 μmol/L ranolazine, 37° C. (Example 7)",1.81±0.01 μm
same,"contraction (fractional shortening, time to 90% peak contraction)","[1]; sham and DOCA-salt cardiomyocytes, 10 μmol/L ranolazine",did not affect contraction
same,relaxation τ (relaxation time constant),"[1]; sham cardiomyocytes, 0.5 Hz, 37° C. (Example 7)",0.09 ± 0.02 s
same,relaxation τ (relaxation time constant),"[1]; sham cardiomyocytes, paced 0.5 Hz, room temperature (Example 3)",0.07 ± 0.01 s
same,resting (baseline) sarcomere length,"[1]; sham cardiomyocytes, 10 μmol/L ranolazine (Example 6)",1.82±0.01 μm
same,resting (baseline) sarcomere length,"[1]; sham cardiomyocytes, 10 μmol/L ranolazine, 37° C. (Example 7)",1.86±0.02 μm
same,reversibility of the effect on relaxation and sarcomere length,[1]; washout,reversible upon washout
same,Ca2+ transients,[2],did not affect either group
